Earlier results in patent publication US20040213859A1, “Organic nutrient for hair loss treatment” (priority 1999, published 2004).

How the values were obtained:
[1] = target: T1, type II 5-alpha-reductase (Homo sapiens, UniProt P31213); conditions: by inhibiting conversion of testosterone to DHT
T1 construct: host or cells: scalp (in vivo, treated individuals)
T1 sequence (P31213 1-254): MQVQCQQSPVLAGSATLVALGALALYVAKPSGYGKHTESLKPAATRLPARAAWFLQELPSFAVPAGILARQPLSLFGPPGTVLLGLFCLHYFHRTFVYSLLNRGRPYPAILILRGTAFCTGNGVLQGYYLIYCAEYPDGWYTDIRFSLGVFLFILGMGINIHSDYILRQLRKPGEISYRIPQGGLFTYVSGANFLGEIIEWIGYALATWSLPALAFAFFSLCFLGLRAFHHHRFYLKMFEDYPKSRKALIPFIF

adrogenetic alopecia = conditions: oral administration

- scalp DHT (dihydrotestosterone) [1]: effective in decreasing scalp DHT
Structure (SMILES): CC(C)(C)NC(=O)[C@H]1CC[C@H]2[C@@H]3CC[C@H]4NC(=O)C=C[C@]4(C)[C@H]3CC[C@]12C [Finisteride]
- hair loss, hair growth and appearance of hair (adrogenetic alopecia): slowed hair loss, increased hair growth and improved the appearance of hair
